Test [1] deals with biotinylated Avi-POLθ[2-894] (Homo sapiens (Human), UniProt O75417). Description: POLθ ATPase assay (ADP-Glo). As to conditions: POLθ ATPase, ADP-Glo; n=2; read-out: Biochemical ATPase ADPGlo IC50. A general note: ADP-Glo turns the ADP formed in a reaction into a luminescent signal.
The test system of a further test is DLD1 BRCA2 (−/−) cells. The test can be described thus: 7-day cell viability assay (CellTiter-Glo), DLD1 BRCA2 (−/−). The test is classed as cell-based, human. As to conditions: 7-day CellTiter-Glo, n=2, read-out: Viability IC50 (uM) DLD1 BRCA2 null. The essentials: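 7-day growth assay in DLD1 cells with or without BRCA2; seeding densities chosen to keep log-linear growth. Compound: 10 uM top, 3-fold, 9 points. Endpoint: CTG ATP luminescence at RT.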
For orientation: Cellular ATP, detected with luciferase, serves as a proxy for viable cell number.

The next test concerns DLD1 WT cells. The test can be described thus: 7-day cell viability assay (CellTiter-Glo), DLD1 parental (WT). The test is classed as cell-based, human. As to conditions: 7-day CellTiter-Glo, n=2.

Read-outs that look alike come from different tables or passages of the source. Some results are limits rather than exact numbers.

Usually IC50 stands for the concentration that inhibits the measured activity by half.

Chain of biotinylated Avi-POLθ[2-894] (O75417 2-894): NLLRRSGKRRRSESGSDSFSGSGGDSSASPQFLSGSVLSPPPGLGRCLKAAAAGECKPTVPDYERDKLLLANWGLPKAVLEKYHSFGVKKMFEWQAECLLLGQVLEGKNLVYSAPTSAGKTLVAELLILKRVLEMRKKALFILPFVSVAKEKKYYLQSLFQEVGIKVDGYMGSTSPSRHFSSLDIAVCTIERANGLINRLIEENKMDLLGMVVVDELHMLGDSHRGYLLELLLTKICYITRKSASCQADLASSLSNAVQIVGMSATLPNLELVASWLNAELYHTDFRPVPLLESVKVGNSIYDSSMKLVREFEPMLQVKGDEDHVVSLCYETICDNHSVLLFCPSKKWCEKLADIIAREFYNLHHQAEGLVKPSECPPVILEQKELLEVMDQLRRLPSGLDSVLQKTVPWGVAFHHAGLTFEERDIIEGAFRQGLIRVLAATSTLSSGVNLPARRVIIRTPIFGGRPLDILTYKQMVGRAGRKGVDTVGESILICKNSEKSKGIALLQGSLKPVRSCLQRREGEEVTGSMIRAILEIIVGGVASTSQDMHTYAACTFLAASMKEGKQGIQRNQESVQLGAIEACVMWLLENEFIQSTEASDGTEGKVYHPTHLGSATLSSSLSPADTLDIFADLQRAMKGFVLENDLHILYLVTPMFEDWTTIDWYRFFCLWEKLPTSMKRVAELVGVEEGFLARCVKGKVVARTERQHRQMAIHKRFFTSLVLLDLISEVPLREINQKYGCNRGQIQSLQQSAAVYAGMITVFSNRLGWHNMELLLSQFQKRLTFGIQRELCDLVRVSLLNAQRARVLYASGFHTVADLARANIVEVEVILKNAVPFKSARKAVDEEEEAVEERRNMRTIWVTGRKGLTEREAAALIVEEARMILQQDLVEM

Turning to `COc1cnc(Cl)cc1-c1cc(C)ncc1C(=O)Nc1nc2c(s1)CN(C(=O)c1cnc(C(F)(F)F)cn1)C2`, the concentration for half-maximal inhibition (IC50) is 0.001 to 0.015 µM in test [1]; 0.001 to 0.1 µM in the test with DLD1 BRCA2 (−/−) cells (Homo sapiens, DLD-1, 168 h); at least 10 µM with DLD1 WT cells (Homo sapiens, DLD-1, 168 h).
The corresponding values for `COc1cnc(Cl)cc1-c1cc(C)ncc1C(=O)Nc1nc2c(s1)CN(C(=O)c1cccc(Cl)c1OC)C2` are 0.001 to 0.015 µM, 0.001 to 0.1 µM and 5 to 10 µM.
For the compound `COc1cnc(Cl)cc1-c1cc(C)ncc1C(=O)Nc1nc2c(s1)CN(C(=O)c1ccc(C(F)(F)F)c(Cl)n1)C2`, the concentration for half-maximal inhibition (IC50) in test [1] was 0.001 to 0.015 µM; in the test with DLD1 BRCA2 (−/−) cells (Homo sapiens, DLD-1, 168 h), 0.001 to 0.1 µM; in the test on DLD1 WT cells (Homo sapiens, DLD-1, 168 h) it was at least 10 µM.
Consider `COc1ccc(C(=O)N2Cc3nc(NC(=O)c4cnc(C)cc4-c4cc(Cl)ncc4OC)sc3C2)c(OC)n1`, for which the concentration for half-maximal inhibition (IC50) in test [1] was in the range of 0.001 to 0.015 µM; in the test with DLD1 BRCA2 (−/−) cells (Homo sapiens, DLD-1, 168 h) it was 0.001 to 0.1 µM; in the test with DLD1 WT cells (Homo sapiens, DLD-1, 168 h), 5 to 10 µM.
For `COc1cnc(Cl)cc1-c1cc(C)ncc1C(=O)Nc1nc2c(s1)CN(C(=O)c1ncc(Br)cc1OC)C2`, in that order: 0.001 to 0.015 µM, 0.1 to 0.25 µM and at least 10 µM.
The corresponding values for `COc1cnc(Cl)cc1-c1cc(C)ncc1C(=O)Nc1nc2c(s1)CN(C(=O)c1ccc(C(F)F)cc1Cl)C2` are 0.001 to 0.015 µM, 0.001 to 0.1 µM and at least 10 µM.
Turning to `COc1cnc(Cl)cc1-c1cc(C)ncc1C(=O)Nc1nc2c(s1)CN(C(=O)c1nc(C(F)F)ccc1Cl)C2`, the IC50 in test [1] was 0.001 to 0.015 µM; in the test on DLD1 BRCA2 (−/−) cells (Homo sapiens, DLD-1, 168 h), 0.001 to 0.1 µM; with DLD1 WT cells (Homo sapiens, DLD-1, 168 h), at least 10 µM.
With `COc1ccc(Cl)c(C(=O)N2Cc3nc(NC(=O)c4cnc(C)cc4-c4cc(Cl)ncc4OC)sc3C2)n1`, the half-inhibitory concentration (IC50) in test [1] is 0.001 to 0.015 µM; with DLD1 BRCA2 (−/−) cells (Homo sapiens, DLD-1, 168 h) it was 0.001 to 0.1 µM; with DLD1 WT cells (Homo sapiens, DLD-1, 168 h) it was at least 10 µM.
For `COc1cnc(Cl)cc1-c1cc(C)ncc1C(=O)Nc1nc2c(s1)CN(C(=O)c1nccc(Cl)c1C)C2`, in that order: 0.001 to 0.015 µM, 0.001 to 0.1 µM and at least 10 µM.
The corresponding values for `COc1cnc(Cl)cc1-c1cc(C)ncc1C(=O)Nc1nc2c(s1)CN(C(=O)c1ccc(F)c(C(F)F)n1)C2` are 0.001 to 0.015 µM, 0.001 to 0.1 µM and at least 10 µM.
On to `COc1cnc(Cl)cc1-c1cc(C)ncc1C(=O)Nc1nc2c(s1)CN(C(=O)c1ccc(C(F)F)nc1Cl)C2`, for which the IC50 was 0.001 to 0.015 µM in test [1]; 0.001 to 0.1 µM with DLD1 BRCA2 (−/−) cells (Homo sapiens, DLD-1, 168 h); at least 10 µM with DLD1 WT cells (Homo sapiens, DLD-1, 168 h).
The corresponding values for `COc1cnc(Cl)cc1-c1cc(C)ncc1C(=O)Nc1nc2c(s1)CN(C(=O)c1nc3ccccc3o1)C2` are 0.001 to 0.015 µM, 0.001 to 0.1 µM and at least 10 µM.
On to `COc1cccc(C(=O)N2Cc3nc(NC(=O)c4cnc(C)cc4-c4cc(Cl)ncc4OC)sc3C2)n1`, for which the half-maximal inhibitory concentration (IC50) in test [1] lay in the range of 0.001 to 0.015 µM; in the test with DLD1 BRCA2 (−/−) cells (Homo sapiens, DLD-1, 168 h) it was 0.001 to 0.1 µM; in the test with DLD1 WT cells (Homo sapiens, DLD-1, 168 h), 2 to 5 µM.
In the case of `COc1ccc(C(=O)N2Cc3nc(NC(=O)c4cnc(C)cc4-c4cc(Cl)ncc4OC)sc3C2)c(Cl)n1`, the IC50 was 0.001 to 0.015 µM in test [1]; 0.001 to 0.1 µM in the test with DLD1 BRCA2 (−/−) cells (Homo sapiens, DLD-1, 168 h); at least 10 µM with DLD1 WT cells (Homo sapiens, DLD-1, 168 h).
As for `COc1ccc(C#N)cc1-c1cc(C)ncc1C(=O)Nc1nc2c(s1)CN(C(=O)c1cccc(C(F)F)c1)C2`, the 50% inhibitory concentration (IC50) in test [1] was 0.001 to 0.015 µM; in the test on DLD1 BRCA2 (−/−) cells (Homo sapiens, DLD-1, 168 h), 0.1 to 0.25 µM; in the test on DLD1 WT cells (Homo sapiens, DLD-1, 168 h) it was at least 10 µM.
`COc1cnc(Cl)cc1-c1cc(C)ncc1C(=O)Nc1nc2c(s1)CN(C(=O)c1cnc(OC)c(Cl)c1)C2`: the half-maximal inhibitory concentration (IC50) was 0.001 to 0.015 µM in test [1]; 0.001 to 0.1 µM in the test with DLD1 BRCA2 (−/−) cells (Homo sapiens, DLD-1, 168 h); 5 to 10 µM with DLD1 WT cells (Homo sapiens, DLD-1, 168 h).
For the compound `COc1cnc(Cl)cc1-c1cc(C)ncc1C(=O)Nc1nc2c(s1)CN(C(=O)c1ccnc(C)n1)C2`, the IC50 in test [1] lay in the range of 0.001 to 0.015 µM; with DLD1 BRCA2 (−/−) cells (Homo sapiens, DLD-1, 168 h), 0.001 to 0.1 µM; with DLD1 WT cells (Homo sapiens, DLD-1, 168 h) it was 5 to 10 µM.
On to `COc1ccc(C#N)cc1-c1cc(C)ncc1C(=O)Nc1nc2c(s1)CN(C(=O)c1ccc(C(F)F)c(F)c1)C2`, for which the 50% inhibitory concentration (IC50) is 0.001 to 0.015 µM in test [1]; 0.001 to 0.1 µM with DLD1 BRCA2 (−/−) cells (Homo sapiens, DLD-1, 168 h); at least 10 µM in the test on DLD1 WT cells (Homo sapiens, DLD-1, 168 h).
For `COc1cnc(Cl)cc1-c1cc(C)ncc1C(=O)Nc1nc2c(s1)CN(C(=O)c1cnc(C)cn1)C2`, the half-inhibitory concentration (IC50) was 0.001 to 0.015 µM in test [1]; 0.001 to 0.1 µM with DLD1 BRCA2 (−/−) cells (Homo sapiens, DLD-1, 168 h); 2 to 5 µM in the test with DLD1 WT cells (Homo sapiens, DLD-1, 168 h).
For `COc1cc(C(=O)N2Cc3nc(NC(=O)c4cnc(C)cc4-c4cc(C#N)ccc4OC)sc3C2)ccc1Cl`, in that order: 0.001 to 0.015 µM, 0.001 to 0.1 µM and 5 to 10 µM.
On to `COc1ccc(C(=O)N2Cc3nc(NC(=O)c4cnc(C)cc4-c4cc(Cl)ncc4OC)sc3C2)cn1`, for which the IC50 is 0.001 to 0.015 µM in test [1]; 0.001 to 0.1 µM in the test on DLD1 BRCA2 (−/−) cells (Homo sapiens, DLD-1, 168 h); at least 10 µM in the test with DLD1 WT cells (Homo sapiens, DLD-1, 168 h).
On to `COc1cc(Cl)nc(C(=O)N2Cc3nc(NC(=O)c4cnc(C)cc4-c4cc(Cl)ncc4OC)sc3C2)c1`, for which the IC50 in test [1] was 0.001 to 0.015 µM; in the test on DLD1 BRCA2 (−/−) cells (Homo sapiens, DLD-1, 168 h) it was 0.001 to 0.1 µM; with DLD1 WT cells (Homo sapiens, DLD-1, 168 h) it was at least 10 µM.
In the case of `COc1cc(Cl)c(C(=O)N2Cc3nc(NC(=O)c4cnc(C)cc4-c4cc(Cl)ncc4OC)sc3C2)cn1`, the concentration for half-maximal inhibition (IC50) is 0.001 to 0.015 µM in test [1]; 0.001 to 0.1 µM in the test with DLD1 BRCA2 (−/−) cells (Homo sapiens, DLD-1, 168 h); at least 10 µM in the test on DLD1 WT cells (Homo sapiens, DLD-1, 168 h).
`COc1ccc(C#N)cc1-c1cc(C)ncc1C(=O)Nc1nc2c(s1)CN(C(=O)c1cccc(OC)c1Cl)C2`: the concentration for half-maximal inhibition (IC50) in test [1] is 0.001 to 0.015 µM; with DLD1 BRCA2 (−/−) cells (Homo sapiens, DLD-1, 168 h) it was 0.001 to 0.1 µM; in the test on DLD1 WT cells (Homo sapiens, DLD-1, 168 h), at least 10 µM.
Turning to `COc1nccc(C(=O)N2Cc3nc(NC(=O)c4cnc(C)cc4-c4cc(Cl)ncc4OC)sc3C2)n1`, the IC50 was 0.001 to 0.015 µM in test [1]; 0.001 to 0.1 µM in the test on DLD1 BRCA2 (−/−) cells (Homo sapiens, DLD-1, 168 h); at least 10 µM in the test on DLD1 WT cells (Homo sapiens, DLD-1, 168 h).
Take `COc1cnc(Cl)cc1-c1cc(C)ncc1C(=O)Nc1nc2c(s1)CN(C(=O)c1cnc(C(F)F)nc1)C2`: the concentration for half-maximal inhibition (IC50) in test [1] was 0.001 to 0.015 µM; in the test on DLD1 BRCA2 (−/−) cells (Homo sapiens, DLD-1, 168 h) it was 0.001 to 0.1 µM; with DLD1 WT cells (Homo sapiens, DLD-1, 168 h), at least 10 µM.
For `COc1cc(Cl)cc(C(=O)N2Cc3nc(NC(=O)c4cnc(C)cc4-c4cc(Cl)ncc4OC)sc3C2)n1`, the IC50 in test [1] is 0.001 to 0.015 µM; in the test with DLD1 BRCA2 (−/−) cells (Homo sapiens, DLD-1, 168 h) it was 0.001 to 0.1 µM; in the test with DLD1 WT cells (Homo sapiens, DLD-1, 168 h), at least 10 µM.
For the compound `COc1cnc(Cl)cc1-c1cc(C)ncc1C(=O)Nc1nc2c(s1)CN(C(=O)c1nccn3nccc13)C2`, the half-inhibitory concentration (IC50) in test [1] is 0.001 to 0.015 µM; in the test on DLD1 BRCA2 (−/−) cells (Homo sapiens, DLD-1, 168 h) it was 0.001 to 0.1 µM; in the test on DLD1 WT cells (Homo sapiens, DLD-1, 168 h), at least 10 µM.
`COc1cnc(Cl)cc1-c1cc(C)ncc1C(=O)Nc1nc2c(s1)CN(C(=O)c1ccc(OC)c(C(F)F)n1)C2`: the half-maximal inhibitory concentration (IC50) in test [1] is 0.001 to 0.015 µM; with DLD1 BRCA2 (−/−) cells (Homo sapiens, DLD-1, 168 h), 0.001 to 0.1 µM; in the test with DLD1 WT cells (Homo sapiens, DLD-1, 168 h), at least 10 µM.
Turning to `COc1nnc(Cl)cc1-c1cc(C)ncc1C(=O)Nc1nc2c(s1)CN(C(=O)c1ccc(C(F)F)cn1)C2`, the 50% inhibitory concentration (IC50) was 0.001 to 0.015 µM in test [1]; 0.001 to 0.1 µM in the test on DLD1 BRCA2 (−/−) cells (Homo sapiens, DLD-1, 168 h); at least 10 µM with DLD1 WT cells (Homo sapiens, DLD-1, 168 h).
With `COc1cnc(Cl)cc1-c1cc(C)ncc1C(=O)Nc1nc2c(s1)CN(C(=O)c1ccc(OC(F)F)nc1Cl)C2`, the half-inhibitory concentration (IC50) in test [1] was 0.001 to 0.015 µM; in the test with DLD1 BRCA2 (−/−) cells (Homo sapiens, DLD-1, 168 h) it was 0.001 to 0.1 µM; in the test with DLD1 WT cells (Homo sapiens, DLD-1, 168 h) it was at least 10 µM.
In the case of “N-(5-(2-Chloro-3-(difluoromethyl)benzoyl)-5,6-dihydro-4H-pyrrolo[3,4-d]thiazol-2-yl)-4-(5-cyano-2-methoxyphenyl)-6-methylnicotinamide [Example 443]”, the IC50 was 0.001 to 0.1 µM in the test with DLD1 BRCA2 (−/−) cells and at least 10 µM with DLD1 WT cells.
For “N-(5-(2-Methoxy-6-(trifluoromethyl)nicotinoyl)-5,6-dihydro-4H-pyrrolo[3,4-d]thiazol-2-yl)-4-(6-methoxyimidazo[1,5-a]pyridin-7-yl)-6-methylnicotinamide [Example 568]”, in that order: 0.001 to 0.1 µM and at least 10 µM.

The values are drawn from patent US20250230171A1 (MOMA Therapeutics, Inc., priority 2023, published 2025).
